Reference: patent US9545393B2, “Methods and compositions for treating pain” (The Board of Trustees of the Leland Stanford Junior …, priority 2012, dated 2017)
“Also recorded” adds a separate entry of the source.

How the values were obtained:
[1] = biological target: T1, mutant ALDH2*2 (Homo sapiens, UniProt P05091, E504K); conditions: Perez-Miller et al, 2010; cited from earlier work
T1 sequence (P05091 18-517 E504K): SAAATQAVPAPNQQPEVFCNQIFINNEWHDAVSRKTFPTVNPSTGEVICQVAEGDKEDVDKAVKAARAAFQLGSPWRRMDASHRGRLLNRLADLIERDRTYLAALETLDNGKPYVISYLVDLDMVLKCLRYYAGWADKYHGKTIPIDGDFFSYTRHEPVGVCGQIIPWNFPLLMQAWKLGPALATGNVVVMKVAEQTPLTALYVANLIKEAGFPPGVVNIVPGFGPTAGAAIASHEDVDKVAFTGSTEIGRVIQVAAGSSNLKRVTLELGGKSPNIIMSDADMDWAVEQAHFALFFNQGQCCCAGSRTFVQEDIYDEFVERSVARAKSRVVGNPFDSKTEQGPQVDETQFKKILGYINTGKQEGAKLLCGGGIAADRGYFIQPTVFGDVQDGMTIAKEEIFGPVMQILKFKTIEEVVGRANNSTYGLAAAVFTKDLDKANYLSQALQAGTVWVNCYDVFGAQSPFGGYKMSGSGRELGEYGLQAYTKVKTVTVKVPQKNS

[2] = system: early growth response protein 1 (EGR1); experiment: EGR1 immunohistochemistry of L4-L6 spinal cord; format: in vivo, rat; conditions: rats, 3 hours after carrageenan; carrageenan alone increased ~5 fold
Method: Immunohistochemistry. Animals were anesthetized with ketamine (90 mg/kg) and xylazine (15 mg/kg) after 3 hours of the experimental protocol. Subsequently, animals were perfused with 4% paraformaldehyde (PFA) in 0.1 M phosphate buffer (PB, pH 7.4). Spinal cord sections (L4-L6) were removed, post-fixed for 4 h in PFA (4%), and transferred to a 30% sucrose solution in PB to ensure cryoprotection. […] The sections were immunostained for early growth response-1 gene (EGR1) expression, using a rabbit polyclonal antibody (Santa Cruz Biotechnology 1:500) in PB containing 0.3% Triton X-100 and 5% normal donkey serum. Incubations with primary antibody were conducted overnight at 24° C. The sections were then washed in PB and incubated with a biotinylated donkey anti-rabbit serum (Vector, Burlingame 1:200) in PB for 2 h at 24° C. The sections were washed again in PB and incubated with the avidin-biotin-peroxidase complex (ABC Elite, Vector Labs, USA). The sections were then reacted with 0.05% 3,3-diaminobenzidine and 0.01% hydrogen peroxide in PB. Intensification was conducted with 0.05% osmium tetroxide in water. The sections were dehydrated, cleared and mounted on a cover-slip. Normal rat serum served as control. Digital images of light microscopy were collected and cells with positive EGR were counted.

[3] = previously shown (Chen 2008; Koda 2010); cited from earlier work
[4] = system: ALDH2 *1/*2 heterozygous mice; experiment: von Frey hair test, carrageenan-induced acute pain model, ALDH2 *1/*2 heterozygous mice; format: in vivo, mouse; conditions: von Frey hair (1.20 gram in FIG. 1E), Alda-1 2 mg/kg s.c.
[5] = system: acetaldehyde; experiment: Tissue acetaldehyde measurement in paw by LC-MS/MS; format: in vivo, rat; conditions: rats, Alda-1 versus carrageenan alone
Method: Tissue Acetaldehyde Measurements. Paw samples were quickly sealed in microcentrifuge tubes, weighed and 3 volumes (v/w) of 0.75 mg/mL Liberase T L (Roche, Indianapolis, Ind.) was added for overnight digestion at 37° C. Acetaldehyde standard solutions (100-5000 ng/mL) and the tissue samples were reacted with saturated 2,4 dinitrophenylhydrazine solution.
To establish LC-MS/MS conditions, the standard of acetaldehyde 2,4-dinitrophenyl-hydrazine (DNPH) was used. Chromatograms of standards were used to establish characteristic retention times of acetaldehyde, and verified the MS signal was linear over the range of 0.1-5 μg/mL. The acetaldehyde peak area derivatives were calculated and plotted against the concentration of the calibration standards using Analyst®1.5.1 software.
Aliquots (30 μL) were taken from each paw homogenate sample. Acetaldehyde in samples of paw homogenate was extracted by adding methanol containing 40 μg/mL DNPH (150 μL). Both unknown samples and standards were vortexed and centrifuged to separate the precipitate. Ten microliters of sample extracts were injected into LC MS/MS for analysis. Automatic peak detection, integration and data processing were performed by the AB SCIEX Analyst 1.5.1 software package. Concentrations of acetaldehyde were calculated by plotting peak area of unknown samples against a standard curve. […]

[6] = system: carrageenan-induced edema; experiment: Edema assessment of the carrageenan-injected paw (plethysmometer); format: in vivo, rat; conditions: rats, 3 hr after carrageenan; Alda-1-treated versus vehicle-treated
Method: Edema Assessment. Inflammation-induced edema of the injected paw was assessed using a plethysmometer (Ugo Basile) (Clapper J R, et al., (2010) Anandamide suppresses pain initiation through a peripheral endocannabinoid mechanism. Nature neuroscience 13: 1265-1270; Van Arman C G, et al., (1965) Some details of the inflammation caused by yeast and carragenin. J Pharmacol Exp Ther 150: 328-333).

[7] = system: neutrophil elastase; experiment: Western blot of neutrophil elastase in paw after carrageenan; format: in vivo, rat; conditions: rats, carrageenan group treated with Alda-1; Western blot quantification
Method: Biochemical Studies In Rats and Mice. Protein was isolated from rat paw tissue at 3 hours after treatment or from liver tissue of mutant or wild type mice. Tissues were homogenized in buffer containing (Hepes 10 mM, NaCl 0.9%, EGTA 1 mM, DTPA 100 μM, Triton-X 1%, Protease and Phosphatase inhibitors (AEBSF, Aprotinin, Bestatin, E-64, Leupeptin, Pepstatin A, Sodium orthovanadate, Sodium molybdate, Sodium tartrate, Imidazole, Cantharidin, (−)-p-Bromolevamisole oxalate and Calyculin A). The samples were centrifuged at 700 g for 5 min at 4° C. Mitochondrial fraction from liver was obtained as previously described (Chen, et al. (2008) Activation of aldehyde dehydrogenase-2 reduces ischemic damage to the heart. Science 321, 1493-1495; Sun, L., et al. ALDH2 activator inhibits increased myocardial infarction injury by nitroglycerin tolerance. Sci Transl Med 3, 107ra111). Activation of aldehyde dehydrogenase-2 reduces ischemic damage to the heart. Science 2008; 321:1493-5). The protein concentration was determined in the supernatants by using Bradford (Bradford, M. M. (1976). A rapid and sensitive method for the quantitation of microgram quantities of protein utilizing the principle of protein-dye binding. Anal Biochem 72, 248-254).
Western blot analysis. […] Quantification analysis of blots was performed with Image J software, using GAPDH as a loading control.

Structure (SMILES): O=C(NCc1ccc2c(c1)OCO2)c1c(Cl)cccc1Cl [Alda-1, N-(1,3-benzodioxol-5-ylmethyl)-2,6-dichlorobenzamide]
- Effect on activity of mutant ALDH2*2 [1]: corrects ALDH2 inactivity
- EGR1 levels in L4-6 spinal cord (marker of hyperalgesia) [2]: brought EGR1 levels to those seen in baseline; also recorded: brought back to basal levels
- Cardiovascular benefits after acute myocardial infarction [3]: reducing infarct size and arrhythmias
- Response to nociceptive stimulus / pain threshold [4]: significantly increased pain threshold; also recorded: bringing the response to wild type levels
- Decrease of the level of acetaldehyde in paw ([5]; carrageenan-induced hyperalgesia): ~50%
- Carrageenan-induced acetaldehyde levels in inflamed paw (FIG. 2F) ([5]; P<0.05): significantly reduced
- Carrageenan-induced increase in paw diameter (edema) [6]: no differences; also recorded: unaffected
- Neutrophil elastase (marker of inflammation) [7]: 220±26
